≈ marks a conversion by molar mass, not a printed value. Calls of active or inactive are those of the source. The calls are words filed in the database; no cut-off is given here.
Legend:
[1] = tested on: Mycobacterium tuberculosis; test: Antimycobacterial activity against Mycobacterium tuberculosis H37Ra assessed as inhibition of bacterial growth measured for 5 days by luminometer; type: functional; settings: 120 h, time 5 day
Mycobacterium marinum = test: Antimycobacterial activity against Mycobacterium marinum assessed as inhibition of bacterial growth measured for 5 days by luminometer; type: functional; settings: 120 h, time 5 day
[2] = Octanol-water distribution coefficient, logD of the compound at pH 7.4 by HPLC analysis; type: physicochemical
[3] = Kinetic solubility of compound in DMSO at pH 2 incubated for 30 mins by laser nephelometry; type: physicochemical; settings: read-out: Kinetic_solubility
[4] = Kinetic solubility of compound in DMSO at pH 6.5 incubated for 30 mins by laser nephelometry; type: physicochemical; settings: read-out: Kinetic_solubility
[5] = Metabolic stability in mouse liver microsomes assessed as half life incubated for 60 mins in presence of NADPH; type: ADME, Microsome
[6] = Metabolic stability in mouse liver microsomes assessed as intrinsic clearance incubated for 60 mins in presence of NADPH; type: ADME, Microsome; settings: read-out: CLH
[7] = tested on: Mycobacterium tuberculosis; test: Antimycobacterial activity against Mycobacterium tuberculosis H37Ra infected in mouse assessed as reduction in relative light unit in lung at 300 mg/kg,po administrated once daily for 5 days; type: functional, organism-based; settings: time 5.0 day
A549 = test: Cytotoxicity against human A549 cells incubated for 48 hrs by MTT assay; type: functional, cell-based; settings: A549, 48 h

COc1cccc(CSc2ccc3nc(-c4ccccc4)c(OC)n3n2)c1
MIC90 [1]: ≤ 1.66 µM | MIC90 (Mycobacterium marinum): 2.65 µM (≈ 1 µg/mL) | logD [2]: 4.8 | solubility kinetic at 0.5 h [3]: 3.1 µg/mL (≈ 8.21 µM) | solubility kinetic at 0.5 h [4]: < 1.6 µg/mL | half-life [5]: < 2 min | microsomal CLint [6]: > 866 µL/min/mg | Activity [7]: inactive | IC50 (A549): > 260 µM

— ChEMBL document CHEMBL5625205, “3-Methoxy-2-phenylimidazo[1,2-b]pyridazines highly active against Mycobacterium tuberculosis and Mycobacterium marinum” (Eur J Med Chem, 2023)
